Results as given in the METLIN SMRT retention time set (Domingo-Almenara et al. 2019).

Assay: gradient 5% acetonitrile 3 min, to 50% in 2 min, to 85% in 15 min, held 3 min, 100 µL/min
Conditions: column: Zorbax Extend-C18 2.1 x 50 mm; eluents: water / acetonitrile, 0.1% formic acid
In short: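 The system's dead and dwell volumes were 40 μL and 900 μL, with a Zorbax Extend-C18 column (2.1 × 50 mm, 1.8 μm) run at 100 μL/min in water and acetonitrile containing 0.1% formic acid each. Pure standards were analyzed in mixtures of ~100 molecules by HPLC–quadrupole time-of-flight mass spectrometry in positive and negative ionization mode. Retention time was assigned from computationally picked, manually inspected adduct peaks.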

## CN1CCCN(c2ccc(NC(=O)c3ccc(Br)cc3)c(C(=O)O)c2)CC1
  RP-LC retention time: 670 s

## COCc1nc(C2CCN(C(=O)C3CCC3)C2)no1 (stereo not drawn)
  RP-LC retention time: 672 s

## O=C([C@@H]1C[C@H](F)CN1S(=O)(=O)c1cccc(F)c1)N1CCOCC1
  RP-LC retention time: 676 s

## Cc1cccc(Nc2nc(C(=O)N3CCC(C(N)=O)CC3)cs2)n1
  RP-LC retention time: 572 s

## COc1cc(C2C(C(=O)N3CCCCC3)=C(C)NC3=C2C(=O)CC(C)(C)C3)cc(OC)c1O (stereo not drawn)
  RP-LC retention time: 1050 s

## Cc1nc2cc(-c3noc(C(C)NC(=O)c4ccccc4)n3)ccc2o1 (stereo not drawn)
  RP-LC retention time: 811 s

## O=C(NCCc1ccc(F)cc1)C1CC(=O)N(CCc2c[nH]c3ccc(Cl)cc23)C1 (stereo not drawn)
  RP-LC retention time: 830 s

## COc1ccc2c(=O)c3c(=O)n(Cc4ccccc4)c(-c4cccs4)nc3oc2c1
  RP-LC retention time: 743 s

## CN(C)c1nc2ncn3c(=O)n(CC(=O)NCCc4ccc(Cl)cc4)nc3c2s1
  RP-LC retention time: 706 s

## CCOc1ccc(N2CC(c3nc(-c4ccccc4C)no3)CC2=O)cc1 (stereo not drawn)
  RP-LC retention time: 931 s

## CCOc1ccc(NC(=O)C2CCN(S(=O)(=O)c3cc(-c4noc(C)n4)sc3C)CC2)cc1
  RP-LC retention time: 1000 s

## O=C(NCc1ccccc1)N1CCC(Nc2cccnc2)C1 (stereo not drawn)
  RP-LC retention time: 580 s

## COc1ccc(OC)c(NC(=O)N2C[C@@H](F)C[C@H]2C(=O)N2CCCCC2)c1
  RP-LC retention time: 720 s

## Cc1sc2ccn(CC(C)C)c(=O)c2c1C(=O)NCc1ccccc1
  RP-LC retention time: 930 s

## COc1ccccc1N(Cc1nc2nc(C)cc(C)n2n1)C(=O)c1ccco1
  RP-LC retention time: 709 s

## COCCNC(=O)c1csc(N2CCN(c3cccc(OC)c3)CC2)n1
  RP-LC retention time: 855 s

## COC(=O)CNC(=O)N1CCN(Cc2ccc(C)cc2)c2ncccc21
  RP-LC retention time: 651 s

## Cc1c(-c2noc(C(=O)NCCCN3CCCCCC3)n2)oc2ccccc12
  RP-LC retention time: 692 s

## Cc1nc2cc(-c3noc(COc4ccccc4)n3)ccc2o1
  RP-LC retention time: 1030 s

## Cc1sc(-c2cc(C(F)(F)F)on2)cc1S(=O)(=O)NCc1ccc(F)cc1
  RP-LC retention time: 1160 s

## COc1ccc(N2CCN(c3cc(SCC(=O)NCc4ccc(Cl)cc4)ncn3)CC2)cc1
  RP-LC retention time: 908 s

## O=C(NCc1ccccc1F)c1cc(=O)n2c(nc3ccccc32)s1
  RP-LC retention time: 876 s

## CC(C)n1c(=O)c(Nc2cc(F)cc(F)c2)nc2ccncc21
  RP-LC retention time: 719 s

## Cc1ccn(-c2cc(Cl)ccc2[C@@H](Oc2cc(-c3ccc(C[C@H](N)C(=O)O)cc3)nc(N)n2)C(F)(F)F)n1
  RP-LC retention time: 834 s

## CCc1cccc(NC(=O)C2CCCN(S(=O)(=O)c3cc(-c4noc(C)n4)cs3)C2)c1 (stereo not drawn)
  RP-LC retention time: 870 s

## O=C(Nc1cc(-c2ccccn2)no1)c1ccc2ccccc2n1
  RP-LC retention time: 965 s

## CCCNC(=O)N1CCN(c2nc3ccccc3n(Cc3ccccc3)c2=O)CC1
  RP-LC retention time: 863 s

## Cc1nn(C)c(C)c1CCC(=O)NCCn1c(C)cnc1C1CCC1
  RP-LC retention time: 547 s

## COc1cccc(NC(=O)N2CCC(c3nc4ccncc4n3C(C)C)C2)c1 (stereo not drawn)
  RP-LC retention time: 535 s

## CCOc1ccccc1OCc1nn2c(CSc3ccccc3)nnc2s1
  RP-LC retention time: 1000 s

## CCc1nc(-c2csc(S(=O)(=O)N3CCCC(C(=O)NCc4cccnc4)C3)c2)no1 (stereo not drawn)
  RP-LC retention time: 660 s

## COC(=O)c1ccc(-c2nc3cnccn3c2Nc2ccc(OC)c(OC)c2)cc1
  RP-LC retention time: 769 s

## CN(C)C(=O)C1CCN(S(=O)(=O)Cc2ccc(F)cc2)CC1
  RP-LC retention time: 691 s

## CCOc1nc2ccccc2nc1N1CCCC(C(=O)Nc2cccc(F)c2)C1 (stereo not drawn)
  RP-LC retention time: 1200 s

## Cc1ccccc1CNC(=O)Cn1c(=O)c2nncn2c2ncccc21
  RP-LC retention time: 662 s

## Cc1cc(N2CCOCC2)nc(N2CCN(C(=O)c3ccc(-c4ccccc4)cc3)CC2)n1
  RP-LC retention time: 720 s

## CCCNC(=O)c1cc(=O)[nH]c2c(Cl)cccc12
  RP-LC retention time: 1080 s

## COc1cc2[nH]c3c(SCC(=O)N4CCc5ccccc5C4)ncnc3c2cc1OC
  RP-LC retention time: 744 s

## CCn1c(=O)c(-c2noc(C(=O)N3CCN(c4ccccn4)CC3)n2)nn(-c2ccc(F)cc2)c1=O
  RP-LC retention time: 676 s

## CCN(CC)CCCNC(=O)C1CCCN(c2ncc(-c3ccc(F)cc3)cn2)C1 (stereo not drawn)
  RP-LC retention time: 668 s

## CCCN1CCN(c2ccc(-c3nc(-c4ccccc4)no3)cn2)CC1
  RP-LC retention time: 715 s

## Cc1ccc(S(=O)(=O)N2CCC(n3c(-c4ccoc4)nc4cccnc43)C2)cc1F (stereo not drawn)
  RP-LC retention time: 910 s

## CCN(CC)c1ccc(CNC(=O)C2CCc3nc(N4CCCCC4)ncc3C2)cc1 (stereo not drawn)
  RP-LC retention time: 546 s

## O=C(Cn1cc(S(=O)(=O)N2CCCC2)ccc1=O)N1CCCc2ccccc21
  RP-LC retention time: 782 s

## CCNC(=O)CCc1nc2ccccc2n(CC(=O)NCCc2ccc(Cl)cc2)c1=O
  RP-LC retention time: 773 s

## COC(=O)C1=CN(c2ccccc2)c2cc(F)ccc2S1(=O)=O
  RP-LC retention time: 787 s

## Cn1c(=O)n(C)c2cc(S(=O)(=O)NCc3ccco3)ccc21
  RP-LC retention time: 636 s

## CC(C)c1nncn1C1CCN(S(=O)(=O)c2cccc(Cl)c2)CC1
  RP-LC retention time: 767 s

## CN(C)C(=O)c1cn(C2CN(C(=O)c3cccc(C#N)c3)C2)nn1
  RP-LC retention time: 613 s

## NC(=O)Cn1c(CCc2ccccc2)nc2ccccc21
  RP-LC retention time: 581 s

## CCCn1cc(C(=O)Nc2cccc(F)c2)c(S(=O)(=O)N2CCSCC2)n1
  RP-LC retention time: 1070 s

## CCOc1ccccc1NC(=O)N1CCN(c2ccc(=O)n(-c3ccc(F)cc3)n2)CC1
  RP-LC retention time: 875 s

## Cc1ccc(CNC(=O)C2(C)CN(S(C)(=O)=O)CC(=O)N2c2cccc(Cl)c2)cc1 (stereo not drawn)
  RP-LC retention time: 854 s

## Cc1nc(-c2ccccc2)cc2nn(CC(=O)Nc3ccc4c(c3)OCO4)c(=O)n12
  RP-LC retention time: 719 s

## CC(COc1ccc(C(C)C)cc1)NC(=O)c1cccs1 (stereo not drawn)
  RP-LC retention time: 998 s

## Cc1ccc(C)c(N2CCN(c3ccnc(SCC(=O)Nc4cc(Cl)ccc4C)n3)CC2)c1
  RP-LC retention time: 952 s

## Cc1cc(C)cc(NC(=O)Cn2c(=O)c3cc(C4CC4)nn3c3ncccc32)c1
  RP-LC retention time: 837 s

## CCCNC(=O)C1CCCN(c2ccc(SCC(=O)Nc3ccc(Br)cc3)nn2)C1 (stereo not drawn)
  RP-LC retention time: 710 s

## Cc1ccc(NC(=O)N2CCCC2c2nc(-c3ccc(F)cc3F)no2)cc1 (stereo not drawn)
  RP-LC retention time: 972 s

## COc1cc(OC)c(NC(=O)CCSc2nc3c(=O)n(C)c(=O)n(C)c3n2C)cc1Cl
  RP-LC retention time: 735 s

## CCc1noc(-c2nc(-c3ccccc3F)no2)n1
  RP-LC retention time: 1010 s

## CCS(=O)(=O)c1ccc2c(c1)N(Cc1nc(-c3ccccc3Cl)no1)C(=O)CO2
  RP-LC retention time: 895 s

## O=C(Cc1cccs1)Nc1nnc(SCc2nnc(-c3ccc4c(c3)OCO4)o2)s1
  RP-LC retention time: 814 s

## Cc1ccn2cc(-c3ccc(NS(=O)(=O)c4ccc(I)cc4)cc3)nc2n1
  RP-LC retention time: 701 s

## CCOc1ccccc1NC(=O)Nc1ccc2nc(N3CCN(C)CC3)cc(C)c2c1
  RP-LC retention time: 612 s

## CCCCN1C(=O)C2(NCCc3c2[nH]c2ccc(OC)cc32)c2cc(Br)ccc21 (stereo not drawn)
  RP-LC retention time: 763 s

## C=Cc1ccc(COC(=O)C2=CN(CC)S(=O)(=O)N=C2C)cc1
  RP-LC retention time: 1030 s

## CC(=O)Nc1ccc(-n2cnc(C(=O)NC(C)c3ccc(F)cc3)c2)nc1 (stereo not drawn)
  RP-LC retention time: 701 s

## Cc1ccccc1CNC(=O)C1CCCN(c2ccc(=O)n(-c3cccc(Cl)c3)n2)C1 (stereo not drawn)
  RP-LC retention time: 922 s

## COc1ccccc1CNc1c(-c2cc(OC)c(OC)c(OC)c2)nc2ncccn12
  RP-LC retention time: 714 s

## CCC(=O)Nc1cnc2c(c1)CCC2
  RP-LC retention time: 491 s

## CN(CC1CCOCC1)C(=O)c1ccc(Br)cc1
  RP-LC retention time: 761 s

## CN1Cc2ccccc2-n2ccnc2C12CCN(C(=O)NC1CCCCC1)CC2
  RP-LC retention time: 611 s

## CN(C)C(=O)c1ccc2c(c1)nnn2CCNC(=O)Nc1cccc(Br)c1
  RP-LC retention time: 678 s

## COc1ccc(C2C(C(=O)N3CCCC(C)C3)c3cc(OC)c(OC)cc3C(=O)N2C)cc1 (stereo not drawn)
  RP-LC retention time: 817 s

## Cc1nn(CCCC(=O)N2CCN(c3ccccn3)CC2)c(=O)c2noc(C)c12
  RP-LC retention time: 580 s

## Cc1cc(C)cc(NC(=O)Cn2c(=O)n(-c3ccc(F)cc3)c(=O)c3c2cc(C)n3C)c1
  RP-LC retention time: 879 s

## O=C(Nc1c(-c2ccccc2)nc2ccccn12)c1cccc([N+](=O)[O-])c1
  RP-LC retention time: 596 s

## Cc1cccc(NC(=O)Cn2nc3n(c2=O)CCCC3)c1C
  RP-LC retention time: 632 s

## CCCCn1c(=O)c2ccccc2n(Cc2nc(-c3ccc(F)c(Cl)c3)no2)c1=O
  RP-LC retention time: 1290 s

## Cc1cc(N2CCN(C(=O)Nc3ccc(C)c(Cl)c3)CC2)nc(N2CCOCC2)n1
  RP-LC retention time: 688 s

## COCCNC(=O)CCc1cc2cc(C)ccc2[nH]c1=O
  RP-LC retention time: 637 s

## Cc1ccc(C(=O)N2[C@H]3CC[C@@H]2c2cnc(-c4ccccc4)nc2C3)cn1
  RP-LC retention time: 689 s

## CN(CC(=O)N1CC=C(c2ccccc2)CC1)S(=O)(=O)c1ccc2c(c1)CCCC(=O)N2
  RP-LC retention time: 746 s

## Cc1nc(C2CCOCC2)n(C2CCN(S(=O)(=O)c3ccc(F)cc3F)C2)n1 (stereo not drawn)
  RP-LC retention time: 712 s

## CCOc1cccc(-c2noc(Cn3ccn(-c4ccccc4OC)c(=O)c3=O)n2)c1
  RP-LC retention time: 863 s

## O=C(c1ccc(F)cc1)N1c2nc(-c3ccccc3)nn2C2(CCCCC2)[C@@H]2CCCC[C@@H]21
  RP-LC retention time: 576 s

## CNC(=O)c1ccsc1NC(=O)c1ccc(Cl)s1
  RP-LC retention time: 882 s
